Assays:
[1] = target: T1, human TXA2 receptor encoded by placenta cDNA clone HPL (SEQ ID NO: 1), expressed in COS-7 cells (Homo sapiens, UniProt P21731); test: Competition for [3H]S-145 binding to membranes of transfected COS-7 cells; details: 1.25 nM [^3H]S-145 and various concentrations of ligands
T1 construct: expressed in transfected cells; host or cells: COS-7 cells (CDM8 vector), membranes
T1 sequence (P21731 1-343): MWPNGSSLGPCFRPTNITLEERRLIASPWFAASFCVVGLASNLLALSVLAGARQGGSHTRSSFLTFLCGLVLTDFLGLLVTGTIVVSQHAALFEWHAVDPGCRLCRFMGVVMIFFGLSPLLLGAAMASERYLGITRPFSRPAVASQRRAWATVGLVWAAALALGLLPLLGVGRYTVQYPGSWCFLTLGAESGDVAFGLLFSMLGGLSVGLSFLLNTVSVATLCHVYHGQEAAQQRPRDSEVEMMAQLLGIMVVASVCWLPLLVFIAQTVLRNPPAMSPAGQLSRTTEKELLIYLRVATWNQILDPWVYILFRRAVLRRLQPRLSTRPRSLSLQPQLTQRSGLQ
Experimental: To establish that HPL encodes the TXA2 receptor, the present inventors subcloned a 2.0 kb fragment of HPL into an eukaryotic expression vector, CDM8 (Seed, B., Nature 329, 840-842 (1987)), and transfected the plasmid into COS-7 cells. […] Specificity of this binding was analysed with several TXA2 analogues as well as various prostanoids.
HPL was digested with BamHI to remove most of the 5'-untranslated region, and its 2.0 kb fragment was inserted between the HindIII-XbaI site of eukaryotic expression vector CDM8 (Seed, B., Nature […], 840-842 (1987)). A modified DEAE-dextran method (Ausbel, F. M. et al, Current Protocols in Molecular Biology. 9.2.5 (Wiley, New York, 1989)) was used for the transfection of COS-7 cells. At 60 h after the transfection, cells were collected and membranes were prepared by homogenizing the cells according to the method of Ausbel, F. M. et al., as described above in the presence of 1 mM benzamidine and 0.3 mM PMSF.

[2] = test system: human TXA2 receptor encoded by HPL (SEQ ID NO: 1), expressed in Xenopus oocytes; test: Electrophysiological response (two-micropipette voltage clamp) of Xenopus oocytes injected with in vitro transcribed mRNA of HPL; format: cell-based; details: for response evoked (inward current): ligand added to the bath at 1 µM, oocytes 48 hours after mRNA injection
Experimental: The TXA2 receptor stimulation results in PI turnover and Ca^2+ mobilization. The present inventors, therefore, expressed the clone in Xenopus oocyte where agonist stimulation linked to PI turnover opens endogenous Ca^2+-dependent Cl^- channel. […] The mRNA synthesized in vitro from the 2.0 kb BamHI subclone of HPL was injected into Xenopus oocytes and electrophysiological responses were measured after 48 hours. A TXA2 agonist, STA2, and other PGs dissolved in ethanol at 100 µM were added to the bath at 1 µM concentration, and responses of oocytes were recorded by the two-micropipette voltage clamp method as described in Masu, Y. et al., Nature 329, 836-838 (1987).

Compound	competition for the [^3H]S-145 binding [1]	response evoked (inward current) [2]	concentration as low as which the response was seen ([2]; oocytes injected with mRNA of HPL)
O=C(O)CCCC=CCC1C2CCC(C2)C1NS(=O)(=O)c1ccccc1 (stereo not drawn) [S-145]	competed for the [^3H]S-145 binding		
CCCCC[C@H](O)/C=C/[C@H]1OC(O)C[C@H](O)[C@@H]1C/C=C\CCCC(=O)O (stereo partly drawn) [TXB2]	at least two orders of magnitude less active in the competition	did not evoke response	
PGD2		did not evoke response	
CCCCC[C@H](O)/C=C/[C@H]1[C@H](O)CC(=O)[C@@H]1CCCCCCC(=O)O [PGE1]		did not evoke response	
CCCCCC(O)C=CC1C(O)CC2OC(=CCCCC(=O)O)CC21 (stereo not drawn) [I2]		did not evoke response	
CCCCC[C@H](O)/C=C/[C@H]1[C@H](O)CC(=O)[C@@H]1C/C=C\CCCC(=O)O [E2]		did not evoke response	
CCCCCC(O)C=CC1CC2CC(S2)C1CC=CCCCC(=O)O (stereo not drawn) [STA2]	competed for the [^3H]S-145 binding	evoked a fast inward current of a few hundred nA followed by a slow phase of current of low amplitude	1 nM
CC1(C)[C@H]2C[C@H](NC(=O)[C@H](O)C3CCCC3)[C@@H](C/C=C\CCCC(=O)O)[C@@H]1C2 [ONO-3708]	competed for the [^3H]S-145 binding		
CCCCC[C@H](O)/C=C/[C@@H]1[C@@H](C/C=C\CCCC(=O)O)[C@@H](O)C[C@H]1O [PGF2 α]		did not evoke response	

Reference: patent publication EP0490410B1, “TXA2 Receptor and gene encoding the same” (SHIONOGI SEIYAKU KABUSHIKI KAISHA, priority 1990, dated 1992)
